This is an account of results in US11453690B2, “Receptor inhibitor, pharmaceutical composition comprising same, and use thereof” (BEIJING TIDE PHARMACEUTICAL CO., LTD., priority 2018, dated 2022).

The test addresses AT2 Receptor (AT2R) (Homo sapiens (Human), UniProt P50052). The test can be described thus: Measurement of inhibitory activity on AT2 receptor (Tag-lite HTRF, Tb-labeled AT2R cells, angiotensin receptor red agonist). The settings on record: 1 h room temperature. It counts as binding.

Chain of AT2 Receptor (AT2R) (P50052 whole entry): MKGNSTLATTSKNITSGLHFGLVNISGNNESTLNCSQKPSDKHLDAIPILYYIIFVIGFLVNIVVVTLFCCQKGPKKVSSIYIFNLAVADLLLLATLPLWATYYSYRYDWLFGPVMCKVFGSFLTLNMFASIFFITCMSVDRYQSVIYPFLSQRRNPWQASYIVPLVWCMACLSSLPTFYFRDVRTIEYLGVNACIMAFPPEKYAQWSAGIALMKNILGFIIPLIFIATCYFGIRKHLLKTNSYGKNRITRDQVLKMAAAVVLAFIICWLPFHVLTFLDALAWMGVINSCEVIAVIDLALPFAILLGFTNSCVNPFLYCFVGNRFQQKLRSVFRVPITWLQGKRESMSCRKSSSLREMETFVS

`O=C(O)[C@@H]1[C@H]2CC[C@@H](CN1C(=O)N(c1ccccc1)c1ccccc1)N2C(=O)c1ccccc1-c1ccccc1` [Compound C240, (1R,2S,5S)-8-([1,1′-biphenyl]-2-carbonyl)-3-(diphenylcarbamoyl)-3,8-diazabicyclo [3.2.1]octane-2-carboxylic acid] showed an IC50 of 0.113 µM.

Molecule `O=C(O)[C@@H]1[C@H]2CC[C@@H](CN1C(=O)N(c1ccccc1)c1ccccc1)N2c1nccc(-c2ccccc2)n1` [Compound C210, (1R,2S,5S)-3-(diphenylcarbamoyl)-8-(4-phenylpyrimidine-2-yl)-3,8-diazabicyclo[3.2.1] octane-2-carboxylic acid] gave a half-maximal inhibitory concentration (IC50) of 0.0495 µM.

On to `CN(Cc1cccnc1)C(=O)N1[C@H]2CC[C@@H]1[C@@H](C(=O)O)N(C(=O)N(c1ccccc1)c1ccccc1)C2` [Compound C124, (1R,2S,5S)-3-(diphenylcarbamoyl)-8-(methyl(pyridine-3-ylmethyl)carbamoyl)-3,8-diazabicyclo [3.2.1]octane-2-carboxylic acid], for which the IC50 came out at 0.0378 µM.

As to `Cc1ccccc1CN(C)C(=O)N1[C@H]2CC[C@@H]1[C@@H](C(=O)O)N(C(=O)N(c1ccccc1)c1ccccc1)C2` [Compound C163, (1R,2S,5S)-3-(diphenylcarbamoyl)-8-(methyl (2-methylbenzyl)carbamoyl)-3,8-diazabicyclo [3.2.1]octane-2-carboxylic acid], the 50% inhibitory concentration (IC50) amounted to 0.0656 µM.

Consider `O=C(O)[C@@H]1[C@H]2CC[C@@H](CN1C(=O)C(c1ccccc1)c1ccccc1)N2C(=O)OCc1c(F)cccc1F` [Compound C36, (1R,2S,5S)-8-(((2,6-diflurorbenzyl)oxy)carbonyl)-3-(2,2-diphenylacetyl)-3,8-diazabicyclo [3.2.1]octane-2-carboxylic acid], for which the IC50 worked out at 0.0207 µM.

With `CN(C)[C@@H](Cc1ccccc1)C(=O)N1[C@H]2CC[C@@H]1[C@@H](C(=O)O)N(C(=O)N(c1ccccc1)c1ccccc1)C2` [Compound C269, (1R,2S,5S)-8-((S)-2-(dimethylamino)-3-phenylpropionyl)-3-(diphenylcarbamoyl)-3,8-diazabicyclo [3.2.1]octane-2-carboxylic acid], the IC50 was 0.0682 µM.

As for `CN(Cc1ccccc1)C(=O)N1C[C@@H]2CC[C@H]([C@H]1C(=O)O)N2C(=O)C(c1ccccc1)c1ccccc1` [Compound C62, (1R,2S,5S)-3-(benzyl(methyl)carbamoyl)-8-(2,2-diphenylacetyl)-3,8-diazabicyclo[3.2.1]octane-2-carboxylic acid], the IC50 came out at 0.104 µM.

With `O=C(O)[C@@H]1[C@@H]2CC[C@@H](CC2Oc2ccc([N+](=O)[O-])cc2)N1C(=O)C(c1ccccc1)c1ccccc1` (stereo partly drawn) [Compound C290, (1S,3S,4S)-2-(2,2-diphenyl-acetyl)-5-(4-nitrophenoxy)-2-azabicyclo [2.2.2]octane-3-carboxylic acid], the IC50 stood at 0.561 µM.

On to `CN(Cc1csc2ccccc12)C(=O)N1[C@H]2CC[C@@H]1[C@@H](C(=O)O)N(C(=O)N(c1ccccc1)c1ccccc1)C2` [Compound C246], for which the 50% inhibitory concentration (IC50) is 0.0101 µM.

As to `CCN(Cc1ccoc1)C(=O)N1[C@H]2CC[C@@H]1[C@@H](C(=O)O)N(C(=O)N(c1ccccc1)c1ccccc1)C2` [Compound C260, (1R,2S,5S)-3-(diphenylcarbamoyl)-8-(ethyl (furan-3-ylmethyl)carbamoyl)-3,8-diazabicyclo [3.2.1]octane-2-carboxylic acid], the IC50 was determined as 0.0296 µM.

Consider `O=C(O)[C@@H]1[C@H]2CC[C@@H](CN1C(=O)N1c3ccccc3Sc3ccccc31)N2C(=O)C(c1ccccc1)c1ccccc1` [Compound C28, (1R,2S,5S)-8-(2,2-diphenylacetyl)-3-(10H-phenothiazine-10-carbonyl)-3,8-diazabicyclo[3.2.1] octane-2-carboxylic acid], for which the IC50 stood at 0.473 µM.

`O=C(O)[C@@H]1[C@H]2CC[C@@H](CN1C(=O)N(c1ccccc1)c1ccccc1)N2C(=O)/C=C/c1ccccc1` [Compound C174, (1R,2S,5S)-8-cinnamoyl-3-(diphenylcarbamoyl)-3,8-diazabicyclo [3.2.1]octane-2-carboxylic acid] returned an IC50 of 0.226 µM.

With `CN(Cc1ccc2cc[nH]c2c1)C(=O)N1[C@H]2CC[C@@H]1[C@@H](C(=O)O)N(C(=O)N(c1ccccc1)c1ccccc1)C2` [Compound C249, (1R,2S,5S)-8-(((1H-indole-6-yl)methyl)(methyl)carbamoyl)-3-(diphenylcarbamoyl)-3,8-diazabicyclo [3.2.1]octane-2-carboxylic acid], the half-maximal inhibitory concentration (IC50) turned out to be 0.0109 µM.

In turn, `CN(Cc1ccc2ccccc2n1)C(=O)N1[C@H]2CC[C@@H]1[C@@H](C(=O)O)N(C(=O)N(c1ccccc1)c1ccccc1)C2` [Compound C265, (1R,2S,5S)-3-(diphenylcarbamoyl)-8-(methyl (quinoline-2-ylmethyl)carbamoyl)-3,8-diazabicyclo [3.2.1]octane-2-carboxylic acid] came in with an IC50 of 0.0272 µM.

The molecule `Cc1cc(CN(C)C(=O)N2[C@H]3CC[C@@H]2[C@@H](C(=O)O)N(C(=O)N(c2ccccc2)c2ccccc2)C3)cs1` [Compound C185] yielded an IC50 of 0.0387 µM.

For the molecule `CCN(Cc1cscn1)C(=O)N1[C@H]2CC[C@@H]1[C@@H](C(=O)O)N(C(=O)N(c1ccccc1)c1ccccc1)C2` [Compound C209, (1R,2S,5S)-3-(diphenylcarbamoyl)-8-(ethyl(thiazole-4-ylmethyl)carbamoyl)-3,8-diazabicyclo [3.2.1]octane-2-carboxylic acid], the IC50 came to 0.0814 µM.

`CN(Cc1csc2ccccc12)C(=O)N1[C@H]2CC[C@@H]1[C@@H](C(=O)O)N(C(=O)C(c1ccccc1)c1ccccc1)C2` [Compound C279] came in with an IC50 of 0.0242 µM.

As to `CN(Cc1ccc(Cl)nc1)C(=O)N1[C@H]2CC[C@@H]1[C@@H](C(=O)O)N(C(=O)N(c1ccccc1)c1ccccc1)C2` [Compound C255], the IC50 stood at 0.0138 µM.

`C=Cc1ccc(CN(C)C(=O)N2[C@H]3CC[C@@H]2[C@@H](C(=O)O)N(C(=O)N(c2ccccc2)c2ccccc2)C3)cc1` [Compound C170, (1R,2S,5S)-3-(diphenylcarbamoyl)-8-(methyl(4-vinylbenzyl)carbamoyl)-3,8-diazabicyclo[3.2.1] octane-2-carboxylic acid] returned an IC50 of 0.00387 µM.

For `Cc1ccc(COC(=O)N2[C@H]3CC[C@@H]2[C@@H](C(=O)O)N(C(=O)C(c2ccccc2)c2ccccc2)C3)cc1` [Compound C194, (1R,2S,5S)-3-(2,2-diphenylacetyl)-8-(((4-methylbenzyl)oxy)carbonyl)-3,8-diazabicyclo [3.2.1]octane-2-carboxylic acid], the IC50 was found to be 0.129 µM.

Turning to `CN(Cc1ccncc1)C(=O)N1[C@H]2CC[C@@H]1[C@@H](C(=O)O)N(C(=O)N(c1ccccc1)c1ccccc1)C2` [Compound C125, (1R,2S,5S)-3-(diphenylcarbamoyl)-8-(methyl(pyridine-4-ylmethyl)carbamoyl)-3,8-diazabicyclo [3.2.1]octane-2-carboxylic acid], the IC50 was 0.019 µM.

The molecule `CN(Cc1ccccc1)C(=O)N1[C@H]2CC[C@@H]1[C@@H](C(=O)O)N(C(=O)C1(c3ccccc3)CCCCC1)C2` [Compound C120, (1R,2S,5S)-8-(benzyl(methyl)carbamoyl)-3-(1-phenylcyclohexane-1-carbonyl)-3,8-diazabicyclo [3.2.1]octane-2-carboxylic acid] yielded an IC50 of 0.35 µM.
